Assay results taken from patent publication US8114854B2, “Crystalline forms of gemcitabine amide prodrug, compositions and use thereof” (Eli Lilly and Company, priority 2006, dated 2012).

How the values were obtained:
mice [1] = conditions: single oral (gavage) dose of 167, 333, or 500 mg/kg; cited from earlier work
mice [2] = conditions: comparable exposures via intravenous dosing; cited from earlier work
[3] = result of first pass metabolism; cited from earlier work
[4] = pH Chemical Stability Assay; assay type: physicochemical; conditions: pH range 1 to 8, after four hours, 40° C., 100 mcg/mL in buffers
Experimental: pH Chemical Stability Assay
The pH chemical stability is assessed using a semi-automated HPLC technique. Samples of 1-(2,2-difluoro-2-deoxy-β-D-ribofuranosyl)-4-(2-propyl-1-oxopentyl)aminopyrimidin-2-one are prepared at 100 mcg/mL in five buffers representing the pH range throughout the gastrointestinal tract (pH1-pH8). Samples are loaded onto an HPLC autosampler incubated at 40° C. Samples are repeatedly injected on the HPLC at hourly intervals for up to 24 hours with an HPLC column that separates a compound of formula I from gemcitabine. The peak area of 1-(2,2-difluoro-2-deoxy-β-D-ribofuranosyl)-4-(2-propyl-1-oxopentyl)aminopyrimidin-2-one is monitored by UV detection over time and are compared to initial peak areas to determine stability.

Mouse Pharmacokinetics = assay type: in vivo, male CD-1 mice
Experimental: The pharmacokinetic profiles of gemcitabine and 1-(2,2-difluoro-2-deoxy-β-D-ribofuranosyl)-4-(2-propyl-1-oxopentyl)aminopyrimidin-2-one are assessed in male CD-1 mice following oral administration at doses selected to contain approximately 10 mg/kg of gemcitabine. Designated animals (n=3/time point/compound) are sacrificed at 0.08, 0.25, 0.5, 1, 2, and 6 hours after dosing, and systemic blood samples are collected into EDTA-treated tubes containing tetrahydrouridine (0.5 mM final concentration in blood) to inhibit further metabolism of gemcitabine. An additional 3 animals are sacrificed at 0.08 hours for collection of hepatic portal blood. Plasma is isolated by centrifugation and frozen prior to analysis. Plasma concentrations of gemcitabine and prodrugs are determined by LC/MS/MS analysis. Pharmacokinetic parameters are calculated using WinNonlin software (Pharsight Corp., Mountain View, Calif.). Pharmacokinetic parameters of each prodrug are compared to those determined from administration of oral gemcitabine hydrochloride in a similar study design.

[5] = Monkey Pharmacokinetics Assay; assay type: in vivo; conditions: administered intravenously to cynomolgus monkeys
Experimental: Monkey Pharmacokinetics Assay
The pharmacokinetic profiles of gemcitabine and a 1-(2,2-difluoro-2-deoxy-β-D-ribofuranosyl)-4-(2-propyl-1-oxopentyl)aminopyrimidin-2-one are assessed in cynomolgus monkeys following oral and intravenous administration in a crossover design. Compounds are administered at doses selected to contain approximately 10 mg/kg of gemcitabine. Blood samples are collected into EDTA-treated tubes containing tetrahydrouridine (0.5 mM final concentration in blood) at designated intervals for up to 48 hours. Animals are pretreated with ranitidine (intravenous, 5 mg/kg) in the oral dosing periods. Plasma is isolated by centrifugation and frozen prior to analysis. Plasma concentrations of gemcitabine and 1-(2,2-difluoro-2-deoxy-β-D-ribofuranosyl)-4-(2-propyl-1-oxopentyl)aminopyrimidin-2-one are determined by LC/MS/MS analysis. Pharmacokinetic parameters are determined using WinNonlin software (Pharsight Corp., Mountain View, Calif.).

[6] = Small Intestine Homogenate Assay (all species); assay type: in vitro ADME, CD-1 mice, beagle dogs, cynomolgus monkeys, and humans; conditions: 100 uM, SIH 2.5-5 mg/mL protein, pH 7.5
Experimental: (§1) Small Intestine Homogenate Assay
(§2) To determine the stability of 1-(2,2-difluoro-2-deoxy-β-D-ribofuranosyl)-4-(2-propyl-1-oxopentyl)aminopyrimidin-2-one to enzymatic hydrolysis in the intestine, crude homogenates of small intestinal epithelial cells are prepared from sections of the upper small intestine from CD-1 mice, beagle dogs, cynomolgus monkeys, and humans. Mouse and dog homogenates are prepared from freshly collected tissue, while monkey and human homogenates are prepared from previously frozen tissues. Cells are gently scraped from intestinal segments, pooled, and homogenized in 50 mM acetate buffer using Polytron (PT-10-85). Protein concentrations are determined by standard spectrophotometric techniques. The prepared homogenates are store at −70° C. before using.
(§3) The hydrolytic rates of 1-(2,2-difluoro-2-deoxy-β-D-ribofuranosyl)-4-(2-propyl-1-oxopentyl)aminopyrimidin-2-one in small intestinal homogenates (SIH) is determined by incubating a compound of formula I (100 uM) with SIH (2.5-5 mg/mL of total protein) in acetate at pH 7.5 for up to 6 hours. Concentrations of gemcitabine released via hydrolysis is determined by LC/MS analysis after the reaction is quenched with acetonitrile. […]

[7] = Small Intestine Homogenate Assay, monkey; assay type: in vitro ADME, cynomolgus monkeys; conditions: 6 hour incubation
Experimental: as §1, §2, §3

[8] = Small Intestine Homogenate Assay, human; assay type: in vitro ADME, humans; conditions: 6 hour incubation
Experimental: as §1, §2, §3

[9] = Liver S9 Hydrolysis Assay (all species); assay type: in vitro ADME, CD-1 mouse, beagle dog, cynomolgus monkey, and human; conditions: all species described; 10 uM, S9 2 mg/mL protein, pH 8.0
Experimental: (§4) Liver S9 Hydrolysis Assay
(§5) Hydrolysis of 1-(2,2-difluoro-2-deoxy-β-D-ribofuranosyl)-4-(2-propyl-1-oxopentyl)aminopyrimidin-2-one by liver enzymes is determined by liver hydrolysis assay. Liver homogenates are prepared from CD-1 mouse, beagle dog, cynomolgus monkey, and human livers. Liver tissues are cut into small pieces using scissors, then, homogenized in 50 mM acetate buffer using Polytron (PT-10-85) for 1 min. Post-mitochondrial (S9) fractions are prepared from each by ultracentrifugation at 9,000×g at 4° C. for 10 min. Mouse, dog and monkey liver S9 fractions are prepared from freshly collected tissues, while human liver S9 are prepared from previously frozen tissue. After centrifugation, the supernatant is collected and protein concentrations are determined by standard spectrophotometric techniques. The prepared S9 fractions are store at −70° C. before using.
(§6) The hydrolytic rates of 1-(2,2-difluoro-2-deoxy-β-D-ribofuranosyl)-4-(2-propyl-1-oxopentyl)aminopyrimidin-2-one in liver S9 is determined by incubating compound (10 uM) with S9 (2 mg/mL of total protein) in phosphate buffered saline at pH 8.0 for up to 6 hours. Concentrations of gemcitabine released via hydrolysis are determined by LC/MS analysis after the reaction is quenched with acetonitrile. […]

[10] = Liver S9 Hydrolysis Assay, monkey; assay type: in vitro ADME, cynomolgus monkey; conditions: monkey liver S9, 6 hour incubation
Experimental: as §4, §5, §6

[11] = Liver S9 Hydrolysis Assay, human; assay type: in vitro ADME; conditions: human liver S9, 6 hour incubation
Experimental: as §4, §5, §6

Female CD-1 mice = experiment: 4-Day Mouse Screen (toxicology); assay type: in vivo; conditions: oral gavage once daily for 4 days, molar equivalent of 8-mg/kg gemcitabine
Experimental: To evaluate the toxicity produced by orally administered 1-(2,2-difluoro-2-deoxy-β-D-ribofuranosyl)-4-(2-propyl-1-oxopentyl)aminopyrimidin-2-one when administered daily to female […] mice for 4 days, the gastrointestinal toxicity profiles of 1-(2,2-difluoro-2-deoxy-β-D-ribofuranosyl)-4-(2-propyl-1-oxopentyl)aminopyrimidin-2-one is compared with the historical results for gastrointestinal toxicity when gemcitabine is administered orally at 8 mg/kg in a 4-day mouse study.
Female CD-1 mice 5-8 weeks of age are dosed with 1-(2,2-difluoro-2-deoxy-β-D-ribofuranosyl)-4-(2-propyl-1-oxopentyl)aminopyrimidin-2-one by oral gavage. A dose level is chosen to approximate a molar equivalent of 8-mg/kg gemcitabine. A dose volume of 10 mL/kg is used and doses are administered once daily on 4 consecutive days. Necropsy is performed approximately 5-8 hours following the 4th dose.
Clinical signs, clinical chemistry, gross pathology, and limited histopathology (ileum, jejunum, and liver) are evaluated.

[12] = system: Male and female CD-1 mice; experiment: 14 Day Mouse Study (toxicology); assay type: in vivo
Experimental: A 14-Day Mouse Study is conducted to evaluate whether 1-(2,2-difluoro-2-deoxy-β-D-ribofuranosyl)-4-(2-propyl-1-oxopentyl)aminopyrimidin-2-one produces adverse effects in mice following 14 days of oral gavage dosing and to determine the plasma concentrations of 1-(2,2-difluoro-2-deoxy-β-D-ribofuranosyl)-4-(2-propyl-1-oxopentyl)aminopyrimidin-2-one and its metabolites gemcitabine HCl and deoxydifluorouridine after 1 or 14 doses.
Male and female CD-1 mice 9-12 weeks of age are dosed with 1-(2,2-difluoro-2-deoxy-β-D-ribofuranosyl)-4-(2-propyl-1-oxopentyl)aminopyrimidin-2-one drug by oral gavage. A range of doses is selected in an effort to determine a maximum tolerated dose and dose limiting toxicity. A dose volume of 10 mL/kg is used and doses are administered once daily.
Clinical signs, body weight, food consumption, hematology, clinical chemistry, plasma concentrations of 1-(2,2-difluoro-2-deoxy-β-D-ribofuranosyl)-4-(2-propyl-1-oxopentyl)aminopyrimidin-2-one and metabolites gemcitabine HCl and deoxydifluorouridine, and pathology (including gross pathology, organ weights, and histopathology) are evaluated.

[13] = system: Male and female beagle dogs; experiment: 7-Day Dog Study (toxicology); assay type: in vivo; conditions: oral via capsule once daily for 7 days
Experimental: To evaluate the toxicity profile of 1-(2,2-difluoro-2-deoxy-β-D-ribofuranosyl)-4-(2-propyl-1-oxopentyl)aminopyrimidin-2-one when administered to Beagle dogs for 7 days, and to determine the plasma concentrations of 1-(2,2-difluoro-2-deoxy-β-D-ribofuranosyl)-4-(2-propyl-1-oxopentyl)aminopyrimidin-2-one and metabolites gemcitabine HCl and deoxydifluorouridine after 1 or 7 doses, a 7-day dog study is conducted.
Male and female beagle dogs 6-48 months of age are dosed orally via capsule with 1-(2,2-difluoro-2-deoxy-β-D-ribofuranosyl)-4-(2-propyl-1-oxopentyl)aminopyrimidin-2-one. A range of doses is selected in an effort to determine a maximum tolerated dose and dose limiting toxicity. A dose volume of 1 mL/kg is used and doses are administered once daily.
Clinical signs, body weight, food consumption, body temperature, hematology (including coagulation), clinical chemistry, urinalysis, plasma concentrations of 1-(2,2-difluoro-2-deoxy-β-D-ribofuranosyl)-4-(2-propyl-1-oxopentyl)aminopyrimidin-2-one and its metabolites gemcitabine HCl and deoxydifluorouridine, and pathology (including gross pathology, organ weights, and histopathology) were evaluated.

[14] = system: HCT-116 colon tumor cells; experiment: In Vivo Assay, HCT-116 colon tumor xenograft; conditions: oral gavage
Experimental: HCT-116 colon tumor cells are grown in vitro under standard tissue culture conditions, harvested, washed, and 5×10^6 cells (1:1 suspension in Matrigel, Collaborative Biomedical Products, Inc) are injected subcutaneously in the rear flank of female nude mice (Charles River, CD1 nu/nu, 24-27 g, irradiated with 450 Rads within 24 h of implantation). Tumors are allowed to grow to ˜100 mm^3 before initiation of therapy. Vehicle control, 1-(2,2-difluoro-2-deoxy-β-D-ribofuranosyl)-4-(2-propyl-1-oxopentyl)aminopyrimidin-2-one or gemcitabine-HCl at various dose levels are administered to the mice by oral gavage (10 ml/kg volume) at the times indicated in the individual experiments. Compounds are administered either daily for fourteen days, every other day for a total of seven doses, or every third day for a total of four doses. […] Tumor size is determined by caliper measurements and tumor volume (mm^3) is estimated from the formula l×w^2×0.536, where l is the larger and w is the smaller of perpendicular diameters. All data (tumor measurements and animal weights) are captured twice-weekly beginning with the start of therapy and analyzed using a computer based tumor measurement system.

In the case of Nc1ccn([C@@H]2O[C@H](CO)[C@@H](O)C2(F)F)c(=O)n1 [gemcitabine, 2′,2′-difluoro-2′-deoxycytidine], the “adverse dose-limiting intestinal lesions” value (mice [1]) is given as “moderate-to-marked loss of mucosal epithelium (atrophic enteropathy)”, the “death or gastrointestinal toxicity” value (mice [2]) is given as “did not result in death or gastrointestinal toxicity” and the oral bioavailability [3] is given as “poor oral bioavailability”.

With CCCC(CCC)C(=O)Nc1ccn([C@@H]2O[C@H](CO)[C@@H](O)C2(F)F)c(=O)n1 [1-(2,2-difluoro-2-deoxy-β-D-ribofuranosyl)-4-(2-propyl-1-oxopentyl)aminopyrimidin-2-one] the degraded to gemcitabine [4] was “Less than 25%”, the “concentrations of intact prodrug in hepatic portal plasma” value (Mouse Pharmacokinetics; 0.08 hours after oral dosing, CD-1 mice) was “relatively high concentrations” and the “hydrolysis in vivo to release gemcitabine” value (Mouse Pharmacokinetics; administered orally to CD-1 mice, dose containing approximately 10 mg/kg of gemcitabine) was “extensively hydrolyzed”. The “plasma exposure to gemcitabine compared to direct oral administration of gemcitabine hydrochloride” value (Mouse Pharmacokinetics; oral, CD-1 mice) was “increased”, the “hydrolysis in vivo to release gemcitabine” value [5] was “extensively hydrolyzed” and the “rate of hydrolysis in small intestine homogenate” value [6] was “slow rate of hydrolysis”. The “total compound converted to gemcitabine” value [7] was “less than 3%”, the “total compound converted to gemcitabine” value [8] was “less than 3%” and the “hydrolysis in liver S9” value [9] was “hydrolyzed”. For the same molecule, the “total compound converted to gemcitabine” value [10] was “approximately 35%”, the “total compound converted to gemcitabine” value [11] was “approximately 35%” and the “severity of atrophic intestinal changes or enteropathy versus gemcitabine HCl” value (Female CD-1 mice) was “significant reduction”. The “systemic gemcitabine exposure from the prodrug versus gemcitabine HCl on a molar equivalent basis” value ([12]; 14-day oral gavage study) was “approximately twice”, the “enteropathy versus gemcitabine HCl on a molar equivalent basis” value ([12]; 14 days of oral gavage dosing) was “less enteropathy” and the “hematotoxicity and other toxicities, including GI toxicity” value [13] was “consistent with what has been previously described for parenteral gemcitabine”. The “overall toxicity versus equivalent amount of gemcitabine-HCl” value ([14]; HCT-116 tumor-bearing nude mice) was “less overall toxicity” and the “antitumor efficacy versus equivalent dose of gemcitabine-HCl” value ([14]; HCT-116 tumors in nude mice) was “comparable”.
